Laboratory results reported in the NIST ThermoML archive (doi:10.1016/j.jct.2006.05.006).

Test: xn = mol fraction of the nth substance listed
Conditions: 101 kPa, Liquid

CN1CCCC1=O [N-methylpyrrolidone] + Cc1ccccc1
Conditions | mass density [kg/m3]
293.15 K, x2 = 0 | 1032.66
293.15 K, x2 = 0.0541 | 1024.34
293.15 K, x2 = 0.1254 | 1013.29
293.15 K, x2 = 0.1845 | 1004.06
293.15 K, x2 = 0.2412 | 995.15
293.15 K, x2 = 0.3154 | 983.34
293.15 K, x2 = 0.3845 | 972.23
293.15 K, x2 = 0.4521 | 961.22
293.15 K, x2 = 0.5214 | 949.8
293.15 K, x2 = 0.5865 | 938.94
293.15 K, x2 = 0.6458 | 928.94
293.15 K, x2 = 0.7124 | 917.57
293.15 K, x2 = 0.7784 | 906.16
293.15 K, x2 = 0.8425 | 894.94
293.15 K, x2 = 0.9014 | 884.51
293.15 K, x2 = 0.9784 | 870.71
303.15 K, x2 = 0 | 1023.42
303.15 K, x2 = 0.0482 | 1016
303.15 K, x2 = 0.1235 | 1004.32
303.15 K, x2 = 0.1856 | 994.6
303.15 K, x2 = 0.2436 | 985.45
303.15 K, x2 = 0.3145 | 974.17
303.15 K, x2 = 0.3854 | 962.74
303.15 K, x2 = 0.4521 | 951.88
303.15 K, x2 = 0.5236 | 940.09
303.15 K, x2 = 0.5852 | 929.81
303.15 K, x2 = 0.6451 | 919.71
303.15 K, x2 = 0.7145 | 907.86
303.15 K, x2 = 0.7854 | 895.61
303.15 K, x2 = 0.8541 | 883.57
303.15 K, x2 = 0.9015 | 875.19
303.15 K, x2 = 0.9789 | 861.34
313.15 K, x2 = 0 | 1014.27
313.15 K, x2 = 0.0522 | 1006.21
313.15 K, x2 = 0.1257 | 994.77
313.15 K, x2 = 0.1901 | 984.67
313.15 K, x2 = 0.2401 | 976.76
313.15 K, x2 = 0.321 | 963.85
313.15 K, x2 = 0.3952 | 951.86
313.15 K, x2 = 0.4654 | 940.38
313.15 K, x2 = 0.5321 | 929.35
313.15 K, x2 = 0.5984 | 918.25
313.15 K, x2 = 0.6541 | 908.84
313.15 K, x2 = 0.7248 | 896.74
313.15 K, x2 = 0.7895 | 885.54
313.15 K, x2 = 0.8412 | 876.51
313.15 K, x2 = 0.9215 | 862.31
313.15 K, x2 = 0.9759 | 852.57
323.15 K, x2 = 0 | 1005.62
323.15 K, x2 = 0.0487 | 998.04
323.15 K, x2 = 0.1147 | 987.71
323.15 K, x2 = 0.1789 | 977.59
323.15 K, x2 = 0.2365 | 968.43
323.15 K, x2 = 0.2987 | 958.46
323.15 K, x2 = 0.3695 | 947
323.15 K, x2 = 0.4351 | 936.27
323.15 K, x2 = 0.4954 | 926.31
323.15 K, x2 = 0.5654 | 914.62
323.15 K, x2 = 0.6215 | 905.15
323.15 K, x2 = 0.6945 | 892.69
323.15 K, x2 = 0.7658 | 880.39
323.15 K, x2 = 0.8321 | 868.8
323.15 K, x2 = 0.9201 | 853.23
323.15 K, x2 = 0.9758 | 843.26
333.15 K, x2 = 0 | 996.28
333.15 K, x2 = 0.0478 | 988.83
333.15 K, x2 = 0.1102 | 979.04
333.15 K, x2 = 0.1874 | 966.85
333.15 K, x2 = 0.2451 | 957.65
333.15 K, x2 = 0.3147 | 946.45
333.15 K, x2 = 0.3984 | 932.84
333.15 K, x2 = 0.4682 | 921.37
333.15 K, x2 = 0.5321 | 910.74
333.15 K, x2 = 0.5984 | 899.6
333.15 K, x2 = 0.6541 | 890.15
333.15 K, x2 = 0.7241 | 878.16
333.15 K, x2 = 0.7985 | 865.26
333.15 K, x2 = 0.8541 | 855.52
333.15 K, x2 = 0.921 | 843.69
333.15 K, x2 = 0.98 | 833.15
343.15 K, x2 = 0 | 987.39
343.15 K, x2 = 0.0512 | 979.36
343.15 K, x2 = 0.1245 | 967.81
343.15 K, x2 = 0.1895 | 957.47
343.15 K, x2 = 0.246 | 948.41
343.15 K, x2 = 0.3124 | 937.69
343.15 K, x2 = 0.3841 | 926
343.15 K, x2 = 0.4514 | 914.91
343.15 K, x2 = 0.5214 | 903.26
343.15 K, x2 = 0.5954 | 890.81
343.15 K, x2 = 0.6598 | 879.85
343.15 K, x2 = 0.7214 | 869.28
343.15 K, x2 = 0.7954 | 856.43
343.15 K, x2 = 0.8596 | 845.17
343.15 K, x2 = 0.9214 | 834.23
343.15 K, x2 = 0.9788 | 823.98
353.15 K, x2 = 0 | 978.62
353.15 K, x2 = 0.0821 | 965.64
353.15 K, x2 = 0.1337 | 957.42
353.15 K, x2 = 0.1993 | 946.92
353.15 K, x2 = 0.2646 | 936.37
353.15 K, x2 = 0.3306 | 925.62
353.15 K, x2 = 0.3965 | 914.8
353.15 K, x2 = 0.4514 | 905.7
353.15 K, x2 = 0.5214 | 894
353.15 K, x2 = 0.5984 | 880.99
353.15 K, x2 = 0.6514 | 871.96
353.15 K, x2 = 0.7214 | 859.91
353.15 K, x2 = 0.7984 | 846.52
353.15 K, x2 = 0.858 | 836.05
353.15 K, x2 = 0.9265 | 823.91
353.15 K, x2 = 0.9799 | 814.38
